Measured values taken from PMC12249905, “Substituted Triazole-3,5-Diamine Compounds as Novel Human Topoisomerase III Beta Inhibitors” (International Journal of Molecular Sciences, 2025).

Experiments:
[1] = biological target: T1, human TOP3B (Homo sapiens, UniProt O95985); test: Assay of inhibition of human TOP3B relaxation activity (chloroquine gel electrophoresis, TDRD3 present); assay type: biochemical; settings: for Inhibition of the DNA relaxation activity of human TOP3B: tested at up to 200 µM; for IC50: DNA relaxation, 18 nM TOP3B and TDRD3, supercoiled pBAD/Thio plasmid, 37 °C 1 h
T1 construct: GST (N); 6xHis (C); purchased Genscript (custom production); host or cells: sf9 insect cells (TOP3B); E. coli Rosetta(DE3) (TDRD3, made in house)
T1 sequence (O95985 1-862): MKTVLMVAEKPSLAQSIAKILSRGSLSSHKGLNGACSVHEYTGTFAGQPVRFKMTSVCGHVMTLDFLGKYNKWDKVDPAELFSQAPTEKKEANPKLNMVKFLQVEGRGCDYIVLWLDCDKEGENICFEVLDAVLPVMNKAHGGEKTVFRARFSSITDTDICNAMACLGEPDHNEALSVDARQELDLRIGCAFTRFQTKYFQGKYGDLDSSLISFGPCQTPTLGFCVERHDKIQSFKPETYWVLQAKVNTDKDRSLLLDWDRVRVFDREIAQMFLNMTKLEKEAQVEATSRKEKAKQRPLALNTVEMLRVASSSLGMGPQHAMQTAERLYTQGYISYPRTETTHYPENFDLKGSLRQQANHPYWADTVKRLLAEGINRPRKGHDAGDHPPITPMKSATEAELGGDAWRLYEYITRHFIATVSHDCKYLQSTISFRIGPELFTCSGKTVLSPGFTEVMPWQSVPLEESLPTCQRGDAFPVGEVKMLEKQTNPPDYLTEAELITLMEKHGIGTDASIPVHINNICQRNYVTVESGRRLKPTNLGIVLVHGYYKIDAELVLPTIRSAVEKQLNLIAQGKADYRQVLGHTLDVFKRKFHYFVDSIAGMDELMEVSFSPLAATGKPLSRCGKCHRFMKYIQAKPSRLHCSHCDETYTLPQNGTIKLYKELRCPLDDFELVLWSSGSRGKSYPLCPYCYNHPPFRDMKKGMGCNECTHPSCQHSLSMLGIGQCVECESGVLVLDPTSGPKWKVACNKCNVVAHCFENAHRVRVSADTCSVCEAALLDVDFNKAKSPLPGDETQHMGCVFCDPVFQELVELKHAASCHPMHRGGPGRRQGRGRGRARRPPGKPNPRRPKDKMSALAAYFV
Description: Human TOP3B protein was obtained through custom production by Genscript. The coding sequence of human TOP3B was custom synthesized by Genscript and cloned into vector pFastBacGST to generate the recombinant baculovirus expressing human TOP3B protein with the N-terminal GST tag and C-terminal 6xHis tag. Following expression in sf9 insect cells, the recombinant TOP3B protein was purified to >95% homogeneity by Genscript using GST column and superdex 200 16/600G chromatography. A buffer containing 20 mM of Tris-HCl (pH 7.5), 750 mM of KCl, 10% glycerol, 1 mM of EDTA, 0.05% NP-40, and 1mM of DTT was used for storage and dilution.
The presence of the TDRD3 protein enhances the relaxation activity of human TOP3B through the direct binding of the proposed TOP3B hinge region for gate opening and closing. The human TDRD3 coding sequence was amplified by PCR from the TDRD3 clone in pEGFP-C1 [45] using a forward primer of 5′-[…]-3′ and a reverse primer of 5′-[…]-3′. The amplified TDRD3 gene was joined with the backbone of the DHFR-His plasmid (from New England BioLab) using the NEB HiFi assembly kit with the forward primer 5′-[…]-3′ and the reverse primer 5′-[…]-3′ so that the TDRD3 gene replaced the DHFR gene. The his-tagged TDRD3 protein was expressed from the T7 promoter in E. coli Rosetta(DE3) cells and purified using the HisPur Ni-NTA spin column from Thermo Fisher according to the manufacturer’s protocol.
Inhibition of the relaxation activity of human TOP3B was carried out in a reaction buffer containing 20 mM of HEPES-KOH, with a pH of 7.5, 1 mM of DTT, 0.1 mg/mL of BSA, and 5 mM of MgCl2. TOP3B and TDRD3 were added at 18 nM to each reaction mix followed by 0.5 μL of DMSO or indicated concentrations of compounds, and lastly by the addition of 500 ng of supercoiled pBAD/Thio plasmid DNA (purified by CsCl gradient centrifugation) for a final reaction volume of 20 μL. After mixing by gentle vortex, the reaction mixtures were spun down and incubated at 37 °C for 1 h. The relaxation reactions were terminated by the addition of 1 μL of 10% SDS and 2 μL of 800 units/mL of proteinase K (New England Biolabs) and incubated at 45 °C for 30 min. Following the addition of 5 μL of stop solution (50 mM of EDTA, 50% glycerol, and 0.5% v/v bromophenol blue), the reaction products were analyzed in a 1% agarose gel with TAE (40 mM of Tris-acetate, pH 8.0, 2 mM of EDTA) buffer containing 5 μg/mL of chloroquine at 25 V (1 V/cm) for 18 h. Gels were washed with TAE buffer for 1 h and 50 mM of NaCl for 1 h to remove the chloroquine, and finally with deionized water for 30 min. Gels were stained for 2 h with 1 μg/mL of SYBR Gold solution (Thermo Fischer Scientific, Waltham, MA, USA). Gels were destained with deionized water for 15 min and photographed over UV light with the AlphaImager system. The amount of the relaxed DNA produced by TOP3B in each reaction was quantified using the AlphaImager software version 1.5.0 to calculate the percentage of inhibition versus the DMSO control.

[2] = biological target: T2, human TOP1 (Homo sapiens, UniProt P11387); test: Assay of inhibition of human TOP1 relaxation activity (gel electrophoresis); assay type: biochemical; settings: DNA relaxation, 1 unit enzyme, supercoiled pBAD/Thio plasmid, 37 °C 30 min
T2 construct: made in house; host or cells: Saccharomyces cerevisiae strain EKY3
T2 sequence (P11387 1-765): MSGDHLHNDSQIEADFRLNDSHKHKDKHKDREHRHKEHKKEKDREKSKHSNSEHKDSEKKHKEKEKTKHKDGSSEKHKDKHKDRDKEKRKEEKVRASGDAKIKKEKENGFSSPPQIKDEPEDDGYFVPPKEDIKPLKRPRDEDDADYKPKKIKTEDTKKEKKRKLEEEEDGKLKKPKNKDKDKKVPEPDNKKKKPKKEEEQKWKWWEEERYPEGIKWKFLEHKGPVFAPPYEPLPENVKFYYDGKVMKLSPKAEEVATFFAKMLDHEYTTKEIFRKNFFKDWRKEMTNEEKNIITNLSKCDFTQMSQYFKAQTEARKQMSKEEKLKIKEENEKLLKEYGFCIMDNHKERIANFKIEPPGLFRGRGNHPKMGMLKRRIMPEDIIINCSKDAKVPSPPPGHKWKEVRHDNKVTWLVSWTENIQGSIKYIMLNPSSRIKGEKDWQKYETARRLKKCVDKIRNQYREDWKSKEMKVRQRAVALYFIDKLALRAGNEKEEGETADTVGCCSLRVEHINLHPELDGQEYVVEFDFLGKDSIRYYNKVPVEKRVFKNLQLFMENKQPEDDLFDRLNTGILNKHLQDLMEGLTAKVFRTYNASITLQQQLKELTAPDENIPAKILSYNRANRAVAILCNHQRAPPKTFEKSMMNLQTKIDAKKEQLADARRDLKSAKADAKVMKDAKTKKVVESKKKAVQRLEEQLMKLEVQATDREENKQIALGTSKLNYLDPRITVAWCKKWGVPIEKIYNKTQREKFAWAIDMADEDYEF
Experimental: Recombinant human TOP1 was expressed from clone pYES2-TOP1 transformed into Saccharomyces cerevisiae strain EKY3 [46]. Inhibition of TOP1 relaxation activity was assayed as described in a 20 µL reaction containing 200 ng of supercoiled pBAD/Thio plasmid DNA and 1 unit of enzyme in 10 mM of Tris-HCl, with a pH of 8.0, 1 mM of EDTA, 150 mM of NaCl, 0.1 mM of spermidine, 0.1 mg/mL of BSA, and 5% glycerol. The reactions were incubated at 37 °C for 30 min before the addition of 4 µL of stop solution (6% SDS, 0.6% (wv/v)) bromophenol blue and 40% glycerol. Gel electrophoresis for the separation of the supercoiled DNA substrate from the relaxed DNA was conducted in 1% agarose gel with TAE buffer for 20 h at 25 V. The DNA was stained with ethidium bromide for an hour and then soaked in water for 5 min. Gels were photographed over UV light with the AlphaImager system. The amount of the supercoiled DNA substrate remaining in each reaction was quantified using the AlphaImager software to calculate the percentage of inhibition versus the DMSO control.

[3] = Cell viability of human dermal fibroblasts (CellTiter-Blue); assay type: cell-based; settings: primary human dermal fibroblasts (HdFa), 100 µM (highest concentration), 24 h exposure, relative to untreated control
Experimental: Human dermal fibroblasts (HdFa; PCS-210-012™, ATCC, Manassas, VA, USA) were cultured in Dulbecco’s Modified Eagle Medium (DMEM; supplemented with GlutaMAX™ and sodium pyruvate; Gibco, Waltham, MA, USA), containing 10% fetal bovine serum (FBS; Gibco) and 1% penicillin-streptomycin (10,000 U/mL; Gibco). Cells were maintained in T75 tissue culture flasks (Thermo Scientific Nunc™, Roskilde, Denmark) under standard incubation conditions (37 °C, 5% CO2, humidified atmosphere). Upon reaching confluency, cells were harvested and seeded into black-walled, clear-bottom, 96-well plates at a density of 5000 cells/well in 100 µL of complete growth medium. Following overnight incubation, the cells reached approximately 80–90% confluence. […]
After 24 h of compound exposure, 20 µL of CellTiter-Blue® reagent (Promega, WI, USA) was added to each well. Plates were incubated for an additional 2 h at 37 °C, after which the fluorescence of the metabolized resorufin product was measured using a Synergy Multi-Mode Plate Reader (BioTek Instruments, Winooski, VT, USA) at an excitation wavelength of 560 nm and an emission wavelength of 590 nm. Cellular viability in response to the test compounds was expressed as a percentage relative to the untreated control group.(1) Cell viability (%)=Fluorescenceintensityoftreatedcells/Fluorescenceintensityofcontrolcells×[…]

Cc1cn(-c2cc(NC(=O)c3ccc(C)c(Nc4nccc(-c5cnccn5)n4)c3)cc(C(F)(F)F)c2)cn1 [Radotinib]
Inhibition of the DNA relaxation activity of human TOP3B [1]: Inhibition was observed only for bemcentinib

Cc1cc(Nc2ncnc3ccc(NC4=NC(C)(C)CO4)cc23)ccc1Oc1ccn2ncnc2c1 [Tucatinib]
Inhibition of the DNA relaxation activity of human TOP3B [1]: Inhibition was observed only for bemcentinib

Cc1cn(-c2cc(NC(=O)c3ccc(C)c(Nc4nccc(-c5cccnc5)n4)c3)cc(C(F)(F)F)c2)cn1 [Nilotinib]
Inhibition of the DNA relaxation activity of human TOP3B [1]: Inhibition was observed only for bemcentinib

CNC(=O)c1cc(Oc2ccc(NC(=O)Nc3cc(C(C)(C)C)nn3-c3ccc4ncccc4c3)c(F)c2)ccn1 [Rebastinib]
Inhibition of the DNA relaxation activity of human TOP3B [1]: Inhibition was observed only for bemcentinib

Nc1nc(Nc2ccc3c(c2)CC[C@@H](N2CCCC2)CC3)nn1-c1cc2c(nn1)-c1ccccc1CCC2 [Bemcentinib]
IC50 [1]: 34.3 µM | Selectivity for inhibition of TOP3B versus TOP1 ([1]; comparison of IC50 values TOP3B vs TOP1): inhibits TOP3B with greater potency than TOP1 | Inhibition of the DNA relaxation activity of human TOP3B [1]: Inhibition was observed only for bemcentinib | IC50 [2]: 75.8 µM

CC(C)[C@H](N)C(=O)n1nc(Nc2ccccc2/C=C/C(N)=O)nc1N [2710-33-343]
viability at 24 h, 100 µM [3]: ~60%

CC(C)C[C@H](N)C(=O)n1nc(Nc2ccccc2/C=C/C(N)=O)nc1N [2710-34-357]
IC50 [1]: 34.5 µM | IC50 [2]: 31.9 µM

CN1CCN(C2CCN(C(=O)Nc3cc(Oc4ccc(NC(=O)C5(C(=O)Nc6ccc(F)cc6)CC5)c(F)c4)ccn3)CC2)CC1 [Golvatinib]
Inhibition of the DNA relaxation activity of human TOP3B [1]: Inhibition was observed only for bemcentinib
